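Compound exposure: 48 hours, 5 concentrations, 96-well plates. At the GI50, growth is halved.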 The source made the active and inactive calls. Cut-off read from the data, not from the text of the source: active = GI50 up to about 1.1 µM and inactive = higher.
How the values were obtained:
Experiment in all cases: growth of human tumour cells (NCI), 48 h
786-0 = tested on: 786-0
A498 = tested on: A498
EKVX = tested on: EKVX
HCT-116 = tested on: HCT-116
HOP-62 = tested on: HOP-62
Hs-578T = tested on: Hs-578T
IGROV-1 = tested on: IGROV-1
KM12 = tested on: KM12
MDA-MB-231 = tested on: MDA-MB-231
MDA-MB-435 = tested on: MDA-MB-435
MOLT-4 = tested on: MOLT-4
NCI-H226 = tested on: NCI-H226
NCI-H23 = tested on: NCI-H23
NCI-H460 = tested on: NCI-H460
OVCAR-3 = tested on: OVCAR-3
SF-295 = tested on: SF-295
SK-MEL-28 = tested on: SK-MEL-28
SK-MEL-5 = tested on: SK-MEL-5
T47D = tested on: T47D
UACC-257 = tested on: UACC-257

Measured: GI50

Clc1ccc(-c2nnc(-c3cccc4ccccc34)o2)cc1Cl
inactive: 786-0 > 100 µM | A498 > 100 µM | EKVX > 100 µM | HCT-116 > 100 µM | HOP-62 > 100 µM | Hs-578T > 100 µM | IGROV-1 4.93 µM | KM12 > 100 µM | MDA-MB-231 > 100 µM | MDA-MB-435 > 100 µM | MOLT-4 59.7 µM | NCI-H226 > 100 µM | NCI-H23 > 100 µM | NCI-H460 > 100 µM | OVCAR-3 > 100 µM | SF-295 > 100 µM | SK-MEL-28 > 100 µM | SK-MEL-5 > 100 µM | T47D > 100 µM | UACC-257 > 100 µM

COc1cccc(OC)c1C1ON=C(c2ccccc2)N1C12CC3CC(CC(C3)C1)C2 (stereo not given)
inactive: 786-0 42.1 µM | A498 > 100 µM | EKVX > 100 µM | HCT-116 51.2 µM | HOP-62 80.9 µM | Hs-578T 57.7 µM | IGROV-1 > 100 µM | KM12 > 100 µM | MDA-MB-231 > 100 µM | MDA-MB-435 > 100 µM | MOLT-4 84.5 µM | NCI-H226 > 100 µM | NCI-H23 > 100 µM | NCI-H460 > 100 µM | OVCAR-3 > 100 µM | SF-295 > 100 µM | SK-MEL-28 > 100 µM | SK-MEL-5 27.3 µM | T47D 8.3 µM | UACC-257 > 100 µM

NS(=O)(=O)c1ccc(NNc2c3ccccc3nc3ccccc23)cc1
inactive: 786-0 12.6 µM | A498 18.3 µM | EKVX 12.5 µM | HCT-116 10.8 µM | HOP-62 12.2 µM | Hs-578T 14.5 µM | IGROV-1 11.2 µM | KM12 11.6 µM | MDA-MB-231 15.6 µM | MDA-MB-435 12.4 µM | MOLT-4 6.04 µM | NCI-H226 10.3 µM | NCI-H23 13.6 µM | NCI-H460 12.2 µM | OVCAR-3 10.2 µM | SF-295 12 µM | SK-MEL-28 12 µM | SK-MEL-5 12.7 µM | T47D 7.52 µM | UACC-257 13.2 µM

O=C1C2=C(CC3=C(C2)CS(=O)(=O)C3)C(=O)C2=C1CC1=C(C2)CS(=O)(=O)C1
inactive: 786-0 25.9 µM | A498 43.7 µM | EKVX 33.2 µM | HCT-116 11.7 µM | HOP-62 20.5 µM | Hs-578T > 32.4 µM | IGROV-1 15.4 µM | KM12 > 19.7 µM | MDA-MB-231 9.59 µM | MDA-MB-435 9.18 µM | MOLT-4 23.9 µM | NCI-H226 24.4 µM | NCI-H23 23.9 µM | NCI-H460 > 31.5 µM | OVCAR-3 3.35 µM | SF-295 26.7 µM | SK-MEL-28 > 43.1 µM | SK-MEL-5 16.3 µM | T47D 2.34 µM | UACC-257 29 µM

CC1C(=O)OC2CC[N+]3([O-])CC=C(COC(=O)C(C)(O)C1(C)O)C23 (stereo not given)
inactive: 786-0 > 100 µM | A498 > 100 µM | EKVX > 100 µM | HCT-116 > 100 µM | HOP-62 > 100 µM | Hs-578T > 100 µM | IGROV-1 > 100 µM | KM12 > 100 µM | MDA-MB-231 > 100 µM | MDA-MB-435 > 100 µM | MOLT-4 > 100 µM | NCI-H226 > 100 µM | NCI-H23 > 100 µM | NCI-H460 > 100 µM | OVCAR-3 > 100 µM | SF-295 > 100 µM | SK-MEL-28 > 100 µM | SK-MEL-5 > 100 µM | T47D > 100 µM | UACC-257 > 100 µM

Source: ChEMBL document CHEMBL1201862, “PubChem BioAssay data set” (2004)
